We go through ten compounds from PMC9311539, “Antibacterial Activity against Clinical Isolates and In Vivo Efficacy of Coralmycins” (Antibiotics, 2022).

Converted amounts (≈) assume the structure as drawn. Where two headings read alike, the source gives them in different places.

For one series, the system named is S. pneumoniae. The series is described as follows: MIC, broth microdilution, clinical isolates: S. pneumoniae. To be noted: for MIC50: read-out: MIC50. It is filed as cell-based, Streptococcus pneumoniae. On the procedure: (§1) To assess the MICs for antibiotic susceptibility, Gram-positive bacteria isolated from human clinical specimens were obtained from several general hospitals in Seoul, Korea, during 2002–2018. Staphylococcus aureus Giorgio and Streptococcus pneumoniae ATCC49619 were used to test in vivo efficacies against […], in mice.
(§2) The MICs of the antimicrobial agents were determined by a twofold microdilution broth method, as described by the Clinical and Laboratory Standards Institute. Briefly, test organisms were grown on Mueller–Hinton agar (MHA, BD Difco, Sparks, MD, USA) plates, subcultured into cation-adjusted Mueller–Hinton broth (CAMHB, BD Difco, Sparks, MD, USA), and incubated for 18 h at 35 °C. For S. pneumoniae culture, 5% sheep blood (Hanil Comed, Seongnam, Korea) was added. The cultured bacteria were diluted using phosphate-buffered saline (PBS) to achieve a bacterial cell density of approximately 5 × 10^6 CFU/mL. All test organisms were loaded into 96-well plates containing serial dilutions of the antimicrobial agents to achieve a concentration of 5 × 10^4 CFU/well. The plates were incubated at 35 °C for 18–20 h and examined for bacterial growth.
For orientation: In broth dilution the organism is exposed to a series of concentrations in liquid medium.

The test system of series [1] is Vancomycin-sensitive E. faecalis. The series is described as follows: MIC, broth microdilution, clinical isolates: vancomycin-sensitive E. faecalis. In kind it is cell-based, Enterococcus faecalis. To be noted: Enterococcus faecalis, 32 clinical isolates; for MIC50: read-out: MIC50; for MIC90: read-out: MIC90. How it is done: as §1, §2
Series [2] concerns Vancomycin-sensitive E. faecium. The series is described as follows: MIC, broth microdilution, clinical isolates: vancomycin-sensitive E. faecium. To be noted: Enterococcus faecium, 32 clinical isolates; for MIC50: read-out: MIC50; for MIC90: read-out: MIC90. It is filed as cell-based, Enterococcus faecium. On the procedure: as §1, §2
In a further series the test system is MSSA. The series is described as follows: MIC, broth microdilution, clinical isolates: MSSA. It is filed as cell-based. To be noted: Staphylococcus aureus; for MIC90: read-out: MIC90. On the procedure: as §1, §2
The test system of a further series is VRE. The series is described as follows: MIC, broth microdilution, clinical isolates: VRE. In kind it is cell-based, vancomycin-resistant Enterococcus. To be noted: for MIC50: read-out: MIC50. On the procedure: as §1, §2
Another series concerns MRSA. The series is described as follows: MIC, broth microdilution, clinical isolates: MRSA. In kind it is cell-based, Staphylococcus aureus. To be noted: Staphylococcus aureus, MRSA, 42 clinical isolates; for MIC50: read-out: MIC50; for MIC90: read-out: MIC90. On the procedure: as §1, §2
Series [3] relates to CNS (coagulase-negative staphylococci). The series is described as follows: MIC, broth microdilution, clinical isolates: CNS. To be noted: 31 clinical isolates; for MIC50: read-out: MIC50; for MIC90: read-out: MIC90. It is filed as cell-based. On the procedure: as §1, §2
For series [4] the following is noted: highly protein-bound antibacterial agents in clinical use; cited from earlier work.
The subject of another series is S. pneumoniae ATCC49619. The series is described as follows: Time-kill assay, S. pneumoniae ATCC49619. It is filed as cell-based, Streptococcus pneumoniae. To be noted: 2× and 4× MIC, 24 h. On the procedure:
(§3) Time-kill analysis was performed by the NCCLS M26-A method. The test organisms (S. aureus Giorgio, S. pneumoniae ATCC49619, MRSA CCARM 3167, and VRE 3) incubated in CAMHB for 18 h at 35 °C were diluted to 10^5 CFU/mL with fresh CAMHB, and the diluted cultures were preincubated for 2 h. For S. pneumoniae culture, 5% sheep blood (Hanil Comed, Seongnam, Korea) was added. […] Culture aliquots (0.1 mL) were removed after 0, 2, 4, 6 and 24 h of incubation, and serial 10-fold dilutions were prepared in saline as needed. The numbers of viable cells were determined on drug-free MHA plates after 20 h of incubation. A compound was considered bactericidal if the original inoculum was reduced by 3 log CFU/mL (99.9%) at each concentration or was considered bacteriostatic if the inoculum was reduced by 0–3 log CFU/mL.

Another series has as its system S. aureus Giorgio. The series is described as follows: Time-kill assay, S. aureus Giorgio. It is filed as cell-based, Staphylococcus aureus. To be noted: 2× and 4× MIC, 24 h. On the procedure:
as §3

The next series relates to VRE 3. The series is described as follows: Time-kill assay, VRE 3. In kind it is cell-based, vancomycin-resistant Enterococcus. To be noted: 2× and 4× MIC, 24 h. On the procedure:
as §3

The test system of the next series is MRSA CCARM 3167. The series is described as follows: Time-kill assay, MRSA CCARM 3167. It is filed as cell-based, Staphylococcus aureus. To be noted: 2× and 4× MIC, 24 h. On the procedure:
as §3

[5] abbreviates: Streptococcus pneumoniae, 27 S. pneumoniae isolates, read-out: MIC90.
[6] abbreviates: Streptococcus pneumoniae, 27 clinical isolates.
The mark [7] stands for this setting: 26 clinical isolates, read-out: MIC50.
[8] abbreviates: Enterococcus, VRE, 46 clinical isolates.
[9] abbreviates: Enterococcus, VRE, 46 clinical isolates, read-out: MIC90.

As to `CO[C@@]1(NC(=O)Cc2cccs2)C(=O)N2C(C(=O)O)=C(COC(N)=O)CS[C@@H]21` [Cefoxitin], the MIC90 (commonly the lowest concentration that inhibits either 90% of growth or 90% of the strains tested, depending on the study) was above 32 µg/mL in the series with S. pneumoniae (27 clinical isolates); above 32 µg/mL in the series with S. pneumoniae (setting [5]); above 32 µg/mL in series [1]; above 32 µg/mL in series [2]; 4 µg/mL (≈ 9.36 µM) in the series on MSSA (26 clinical isolates); above 32 µg/mL in the series on VRE (setting [9]). In addition, the MIC50 (usually the lowest concentration that inhibits either 50% of growth or 50% of the strains tested, depending on the study) in the series on S. pneumoniae (setting [6]) was above 32 µg/mL; in series [1] it was above 32 µg/mL; in series [2], above 32 µg/mL; in the series on MSSA (setting [7]) it was 4 µg/mL (≈ 9.36 µM); in the series with VRE (setting [8]) it was above 32 µg/mL.

Turning to `CC(C)(O/N=C(\C(=O)N[C@@H]1C(=O)N2C(C(=O)[O-])=C(C[n+]3ccccc3)CS[C@H]12)c1csc(N)n1)C(=O)O` [Ceftazidime], the MIC50 is above 32 µg/mL with MRSA; above 32 µg/mL with S. pneumoniae (setting [6]); above 32 µg/mL in series [1]; 32 µg/mL (≈ 58.5 µM) in series [3]; above 32 µg/mL in series [2]; 8 µg/mL (≈ 14.6 µM) with MSSA (setting [7]). Moreover, in the series with VRE (setting [8]), the MIC50 is above 32 µg/mL. Besides, the MIC90 (with MRSA; against S. pneumoniae (27 clinical isolates); in the series with S. pneumoniae (setting [5]); in [1]; in series [3]; in [2]) was above 32 µg/mL in each case. For the same compound, the MIC90 with MSSA (26 clinical isolates) is 16 µg/mL (≈ 29.3 µM); in the series on VRE (setting [9]), above 32 µg/mL.

With `CCCCCCCCCC(=O)N[C@@H](Cc1c[nH]c2ccccc12)C(=O)N[C@H](CC(N)=O)C(=O)N[C@@H](CC(=O)O)C(=O)N[C@@H]1C(=O)NCC(=O)N[C@@H](CCCN)C(=O)N[C@@H](CC(=O)O)C(=O)N[C@H](C)C(=O)N[C@@H](CC(=O)O)C(=O)NCC(=O)N[C@H](CO)C(=O)N[C@@H]([C@H](C)CC(=O)O)C(=O)N[C@@H](CC(=O)c2ccccc2N)C(=O)O[C@@H]1C` [Daptomycin], the MIC50 in the series on MRSA stood at 2 µg/mL (≈ 1.23 µM); with S. pneumoniae (setting [6]) it was 2 µg/mL (≈ 1.23 µM); in [1], 4 µg/mL (≈ 2.47 µM); in [3], 2 µg/mL (≈ 1.23 µM); in series [2] it was 4 µg/mL (≈ 2.47 µM); with MSSA (setting [7]), 2 µg/mL (≈ 1.23 µM). In addition, the MIC50 with VRE (setting [8]) was 4 µg/mL (≈ 2.47 µM). For the same compound, the MIC90 in the series with MRSA amounted to 4 µg/mL (≈ 2.47 µM); with S. pneumoniae (27 clinical isolates) it was 8 µg/mL (≈ 4.94 µM); in the series on S. pneumoniae (setting [5]), 8 µg/mL (≈ 4.94 µM); in series [1] it was 8 µg/mL (≈ 4.94 µM); in series [3] it was 4 µg/mL (≈ 2.47 µM); in series [2], 8 µg/mL (≈ 4.94 µM). Moreover, the MIC90 came to 4 µg/mL (≈ 2.47 µM) in the series with MSSA (26 clinical isolates); 8 µg/mL (≈ 4.94 µM) against VRE (46 clinical isolates); 8 µg/mL (≈ 4.94 µM) in the series with VRE (Enterococcus, 46 VRE isolates, read-out: MIC90).

On to `CNC(C)C1CCC(N)C(OC2C(N)CC(N)C(OC3OCC(C)(O)C(NC)C3O)C2O)O1` (centres unmarked) [Gentamicin], for which the MIC50 with MRSA was 32 µg/mL (≈ 67 µM); in the series on S. pneumoniae (setting [6]), 32 µg/mL (≈ 67 µM); in [1], above 32 µg/mL; in [3], above 32 µg/mL; in series [2] it was above 32 µg/mL; in the series with MSSA (setting [7]) it was 1 µg/mL (≈ 2.09 µM). In addition, the MIC50 in the series on VRE (setting [8]) was above 32 µg/mL. The MIC90 in the series on MRSA was above 32 µg/mL; with S. pneumoniae (Streptococcus pneumoniae, 27 clinical isolates, read-out: MIC90) it was above 32 µg/mL; in [1] it was above 32 µg/mL; in series [3] it was above 32 µg/mL; in series [2], above 32 µg/mL; with MSSA (26 clinical isolates) it was above 32 µg/mL. For the same compound, the MIC90 in the series with VRE (setting [9]) is above 32 µg/mL.

For the compound `C[C@H]1COc2c(N3CCN(C)CC3)c(F)cc3c(=O)c(C(=O)O)cn1c23` [Levofloxacin], the MIC50 in the series on MRSA turned out to be 16 µg/mL (≈ 44.3 µM); with S. pneumoniae (setting [6]), 0.5 µg/mL (≈ 1.38 µM); in series [1], 2 µg/mL (≈ 5.53 µM); in series [3] it was 8 µg/mL (≈ 22.1 µM); in series [2], 16 µg/mL (≈ 44.3 µM); in the series on MSSA (setting [7]) it was 0.25 µg/mL (≈ 0.692 µM). Further, in the series with VRE (setting [8]), the MIC50 was above 32 µg/mL. The MIC90 with MRSA is above 32 µg/mL; against S. pneumoniae (27 clinical isolates), 16 µg/mL (≈ 44.3 µM); with S. pneumoniae (setting [5]), 16 µg/mL (≈ 44.3 µM); in series [1], 32 µg/mL (≈ 88.6 µM); in series [3], above 32 µg/mL; in [2], 32 µg/mL (≈ 88.6 µM). The MIC90 is 0.5 µg/mL (≈ 1.38 µM) in the series with MSSA (26 clinical isolates) and above 32 µg/mL in the series on VRE (setting [9]).

For the compound `C[C@@H](O)[C@H]1C(=O)N2C(C(=O)O)=C(S[C@@H]3CN[C@H](C(=O)N(C)C)C3)[C@H](C)[C@H]12` [Meropenem], the MIC90 against S. pneumoniae (27 clinical isolates) was 4 µg/mL (≈ 10.4 µM); with S. pneumoniae (setting [5]), 4 µg/mL (≈ 10.4 µM); in series [1] it was 16 µg/mL (≈ 41.7 µM); in [2] it was above 32 µg/mL; with MSSA (26 clinical isolates), 0.25 µg/mL (≈ 0.652 µM); in the series with VRE (setting [9]) it was above 32 µg/mL. Moreover, the MIC50 is 0.5 µg/mL (≈ 1.3 µM) in the series on S. pneumoniae (setting [6]); 4 µg/mL (≈ 10.4 µM) in series [1]; above 32 µg/mL in [2]; 0.125 µg/mL (≈ 0.326 µM) against MSSA; above 32 µg/mL with VRE (setting [8]).

Regarding `Cc1onc(-c2ccccc2)c1C(=O)N[C@@H]1C(=O)N2[C@@H]1SC(C)(C)[C@@H]2C(=O)O` [Oxacillin], the MIC50 with MRSA was above 32 µg/mL; with MSSA (setting [7]), 0.5 µg/mL (≈ 1.25 µM). Moreover, the figures for the MIC90 in the series on MRSA and with MSSA (26 clinical isolates) were above 32 µg/mL and 1 µg/mL (≈ 2.49 µM), respectively.

For the compound `CO/N=C(\C(=O)N[C@@H]1C(=O)N2C(C(=O)O)=C(CSc3nc(=O)c(=O)[nH]n3C)CS[C@H]12)c1csc(N)n1` [ceftriaxone], in series [4], the protein-bound was above 90%.

Regarding `O=C(O)c1cn(C2CC2)c2cc(N3CCNCC3)c(F)cc2c1=O` [ciprofloxacin], the time-kill activity entry in the series with S. pneumoniae ATCC49619, with S. aureus Giorgio, with VRE 3 and with MRSA CCARM 3167 was “bactericidal (considered bactericidal if the original inoculum was reduced by 3 log CFU/mL (99.9%) at each concentration)” throughout.

As to teicoplanin, the protein-bound in series [4] is given as above 90%.
